Here are results for three molecules from ChEMBL document CHEMBL3525911, “The development, characterization, and application of an OATP1B1 inhibition assay in drug discovery” (Drug Metab Dispos, 2012).

Data set [1] has as its target T1, Solute carrier organic anion transporter family member 1B1 (Homo sapiens, UniProt Q9Y6L6).
T1 sequence (Q9Y6L6 whole entry): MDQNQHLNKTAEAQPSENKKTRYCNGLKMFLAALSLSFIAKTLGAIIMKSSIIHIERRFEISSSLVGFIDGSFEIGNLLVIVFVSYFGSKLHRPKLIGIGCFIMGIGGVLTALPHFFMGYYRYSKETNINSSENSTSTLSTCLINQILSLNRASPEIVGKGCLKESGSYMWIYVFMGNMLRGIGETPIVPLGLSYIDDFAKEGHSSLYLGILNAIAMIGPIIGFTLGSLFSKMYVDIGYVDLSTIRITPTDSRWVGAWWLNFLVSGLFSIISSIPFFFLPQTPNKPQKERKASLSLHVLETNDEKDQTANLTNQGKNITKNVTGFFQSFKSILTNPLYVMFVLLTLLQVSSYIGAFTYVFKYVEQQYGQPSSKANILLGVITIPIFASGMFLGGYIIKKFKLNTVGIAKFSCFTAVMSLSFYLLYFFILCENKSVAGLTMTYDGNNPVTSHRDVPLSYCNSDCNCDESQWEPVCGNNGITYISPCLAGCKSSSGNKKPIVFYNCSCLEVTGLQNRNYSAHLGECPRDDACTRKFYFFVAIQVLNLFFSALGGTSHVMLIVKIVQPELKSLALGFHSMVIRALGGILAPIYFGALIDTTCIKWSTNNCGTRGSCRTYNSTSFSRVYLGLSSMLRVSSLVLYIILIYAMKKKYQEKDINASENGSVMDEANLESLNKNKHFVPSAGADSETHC
Nature of the data set: Inhibition of OATP1B1 (unknown origin) expressed in HEK293 cells using pitavastatin substrate. The data set is classed as ADME, cell-based.

Data set [2] concerns the target T1, Solute carrier organic anion transporter family member 1B1. Nature of the data set: Inhibition of OATP1B1 (unknown origin) expressed in HEK293 cells using estradiol-17beta-glucuronide substrate. Format: ADME, cell-based.
Data set [3] shares this target. Nature of the data set: Inhibition of OATP1B1 (unknown origin) expressed in HEK293 cells using estrone-3-sulfate substrate. The data set is classed as ADME, cell-based.
Substrate in data set [4]: O=C(O)C[C@H](O)C[C@H](O)/C=C/c1c(C2CC2)nc2ccccc2c1-c1ccc(F)cc1
As to the kind of experiment: (§1) Drug uptake in HEK293 cells expressing OATP1B1 (unknown origin) assessed as OATP1B1-mediated drug transport. Format: ADME, cell-based, Homo sapiens.

Substrate in data set [5]: C[C@]12CC[C@@H]3c4ccc(O)cc4CC[C@H]3[C@@H]1CC[C@@H]2O[C@@H]1O[C@H](C(=O)O)[C@@H](O)[C@H](O)[C@H]1O
The data set is described as §1. Format: ADME, cell-based, Homo sapiens.

On to `Cc1ccc(C)c(OCCCC(C)(C)C(=O)O)c1` [GEMFIBROZIL], for which the half-inhibitory concentration (IC50) in data set [1] came to 38 µM; in data set [2] it was 11 µM; in data set [3] it was 130 µM.
As to `CO[C@H]1/C=C/O[C@@]2(C)Oc3c(C)c(O)c4c(O)c(c(/C=N/N5CCN(C)CC5)c(O)c4c3C2=O)NC(=O)/C(C)=C\C=C\[C@H](C)[C@H](O)[C@@H](C)[C@@H](O)[C@@H](C)[C@H](OC(C)=O)[C@@H]1C` [RIFAMPIN], the IC50 is 0.3 µM in data set [2] and 2.3 µM in data set [3].

B1: Solute carrier organic anion transporter family member 1B1 (Homo sapiens) (protein)
chain: T1 sequence (Q9Y6L6 whole entry)
On to B1, for which the Km was 4.8 µM in data set [4] and 3.6 µM in data set [5]. Also, the maximum rate (Vmax) in data set [4] turned out to be 0.00045 µmol/min; in data set [5], 0.0002 µmol/min.
